Source: patent US8710224B2, “Heterocyclic compounds as CCR2B antagonists” (AstraZeneca AB, priority 2004, dated 2014)

Biological target: T1, recombinant human CCR5 receptor (Homo sapiens, UniProt P51681)
T1 construct: expressed in transfected cells; host or cells: Chinese hamster ovary (CHO) cells; membranes
Experiment: Radioligand binding assay for inhibition of the binding of MIP-1α
Settings: displacement of 0.1 nM iodinated MIP-1α; membranes of Chinese hamster ovary cells expressing CCR5
Description: Biological Assay for the Ability of Compounds to Inhibit the Binding of MIP-1α This ability is assessed using an in vitro radioligand binding assay. Membranes are prepared from Chinese hamster ovary cells which express the recombinant human CCR5 receptor. These membranes are incubated with 0.1 nM iodinated MIP-1α, scintillation proximity beads and various concentrations of the compounds of the invention in 96-well plates. The amount of iodinated MIP-1α bound to the receptor is then determined by scintillation counting.

T1 sequence (P51681 whole entry): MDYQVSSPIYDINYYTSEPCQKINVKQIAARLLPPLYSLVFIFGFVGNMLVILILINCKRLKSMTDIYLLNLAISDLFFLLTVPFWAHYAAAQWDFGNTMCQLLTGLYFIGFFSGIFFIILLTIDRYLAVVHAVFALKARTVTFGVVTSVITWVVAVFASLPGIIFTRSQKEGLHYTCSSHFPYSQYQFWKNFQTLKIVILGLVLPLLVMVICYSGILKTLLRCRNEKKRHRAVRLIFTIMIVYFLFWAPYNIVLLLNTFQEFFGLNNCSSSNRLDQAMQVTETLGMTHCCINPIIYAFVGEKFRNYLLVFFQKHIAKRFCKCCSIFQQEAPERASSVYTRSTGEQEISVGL

IC50, < 10 µM:
O=C(Nc1ccc(Cl)c(C(F)(F)F)c1)N1CCN(C[C@@H]2CCCN(C3CC3)C2)CC1 [Example 186, N-[4-chloro-3-(trifluoromethyl)phenyl]-4-{[(3S)-1-cyclopropylpiperidin-3-yl]methyl}piperazine-1-carboxamide]
CC(C)N1CCN[C@@H](C(=O)N2CCN(C(=O)Nc3cc(Cl)cc(Cl)c3)CC2)C1 [Example 287, N-(3,5-Dichlorophenyl)-4-{[(2R)-4-isopropylpiperazin-2-yl]carbonyl}piperazine-1-carboxamide]
O=C(Nc1ccccc1)N1CCN(C[C@@H]2CCCN(CCc3ccc(Cl)cc3)C2)CC1 [Example 249, 4-[[(3R)-1-[2-(4-chlorophenyl)ethyl]-3-piperidyl]methyl]-N-phenyl-piperazine-1-carboxamide]
O=C(Nc1cccc(C(F)(F)F)c1)N1CCN(C[C@@H]2CCCN(C3CC3)C2)CC1 [Example 109, 4-{[(3S)-1-cyclopropylpiperidin-3-yl]methyl}-N-[3-(trifluoromethyl)phenyl]piperazine-1-carboxamide]
O=C(Nc1ccccc1)N1CCN(C[C@@H]2CCCN(CCCc3ccccc3)C2)CC1 [Example 245, N-phenyl-4-[[(3R)-1-(3-phenylpropyl)-3-piperidyl]methyl]piperazine-1-carboxamide]
CC(C)N1CCN[C@@H](C(=O)N2CCN(C(=O)Nc3ccc(C#N)c(C(F)(F)F)c3)CC2)C1 [Example 292, N-[4-Cyano-3-(trifluoromethyl)phenyl]-4-{[(2R)-4-isopropylpiperazin-2-yl]carbonyl}piperazine-1-carboxamide]
Nc1ncccc1CN1CCCC(CN2CCN(C(=O)Nc3ccc(F)c(Cl)c3)CC2)C1 (centres unmarked) [Example 266, 4-({1-[(2-aminopyridin-3-yl)methyl]piperidin-3-yl}methyl)-N-(3-chloro-4-fluorophenyl)piperazine-1-carboxamide]
O=C(Nc1ccc(Cl)c(Cl)c1)N1CCN(C(=O)[C@H]2CN(C3CC3)CCN2)CC1 [Example 135, 4-[(2R)(4-Cyclopropylpiperazin-2-yl)carbonyl]-N-(3,4-dichlorophenyl)piperazine-1-carboxamide]
O=C(Nc1ccc(F)c(Cl)c1)N1CCN(C[C@@H]2CCCN(C3CC3)C2)CC1 [Example 107, N-(3-chloro-4-fluorophenyl)-4-{[(3S)-1-cyclopropylpiperidin-3-yl]methyl}piperazine-1-carboxamide]
CC(C)N1CC[C@@H](CN2CCN(C(=O)Nc3ccc(Cl)c(Cl)c3)CC2)C1 [Example 231, N-(3,4-dichlorophenyl)-4-{[(3S)-1-isopropylpyrrolidin-3-yl]methyl}piperazine-1-carboxamide]
CC(C1CC1)N1CCN[C@@H](C(=O)N2CCN(C(=O)Nc3ccc(Cl)c(Cl)c3)CC2)C1 (stereo partly drawn) [Example 281, 4-{[(2R)-4-(1-Cyclopropylethyl)piperazin-2-yl]carbonyl}-N-(3,4-dichlorophenyl)piperazine-1-carboxamide]
O=C(Nc1ccccc1)N1CCN(C[C@@H]2CCCN(CCc3ccc(F)cc3Cl)C2)CC1 [Example 251, 4-[[(3R)-1-[2-(2-chloro-4-fluoro-phenyl)ethyl]-3-piperidyl]methyl]-N-phenyl-piperazine-1-carboxamide]
O=C(Nc1ccc(Cl)c(Cl)c1)N1CCN(CC2CCN([C@H]3CC[C@](O)(c4ccncc4)CC3)C2)CC1 (some centres unmarked) [Example 150, N-(3,4-dichlorophenyl)-4-{[1-(4-hydroxy-4-pyridin-4-ylcyclohexyl)pyrrolidin-3-yl]methyl}piperazine-1-carboxamide]
O=C(Nc1ccc(Cl)c(Cl)c1)N1CCN(C(=O)C2CCN(C3CCC(O)(c4nccs4)CC3)C2)CC1 (stereo not drawn) [Example 148, N-(3,4-dichlorophenyl)-4-({1-[cis-4-hydroxy-4-(1,3-thiazol-2-yl)cyclohexyl]pyrrolidin-3-yl}carbonyl)piperazine-1-carboxamide]
COc1ccc(CCN2CCC[C@@H](CN3CCN(C(=O)Nc4ccccc4)CC3)C2)cc1 [Example 250, 4-[[(3R)-1-[2-(4-methoxyphenyl)ethyl]-3-piperidyl]methyl]-N-phenyl-piperazine-1-carboxamide]
Cc1nn(C)cc1CN1CCC[C@@H](CN2CCN(C(=O)Nc3ccc(Cl)c(Cl)c3)CC2)C1 [Example 197, N-(3,4-Dichlorophenyl)-4-({(3R)-1-[(1,3-dimethyl-1H-pyrazol-4-yl)methyl]piperidin-3-yl}methyl)piperazine-1-carboxamide]
O=C(Nc1ccc(Cl)c(Cl)c1)N1CCN(C(=O)C2CCN([C@H]3CC[C@](O)(c4ccncc4)CC3)C2)CC1 (stereo partly drawn) [Example 147, N-(3,4-dichlorophenyl)-4-{[1-(cis-4-hydroxy-4-pyridin-4-ylcyclohexyl)pyrrolidin-3-yl]carbonyl}piperazine-1-carboxamide]
O=C(Nc1ccc(Cl)c(Cl)c1)N1CCN(C[C@@H]2CCCN(CC3CC3)C2)CC1 [Example 19, 4-{[(3R)-1-(cyclopropylmethyl)-piperidin-3-yl]methyl}-N-(3,4-dichlorophenyl)-piperazine-1-carboxamide]
CC(C)N1CCN[C@@H](C(=O)N2CCN(C(=O)Nc3ncc(Cl)s3)CC2)C1 [Example 264, N-(5-Chloro-1,3-thiazol-2-yl)-4-{[(2R)-4-isopropylpiperazin-2-yl]carbonyl}piperazine-1-carboxamide]
O=C(Nc1ccc(Cl)c(Cl)c1)N1CCN(C[C@@H]2CCCN(CCC3CCOCC3)C2)CC1 [Example 203, N-(3,4-Dichlorophenyl)-4-({(3R)-1-[2-(tetrahydro-2H-pyran-4-yl)ethyl]piperidin-3-yl}methyl)piperazine-1-carboxamide]
O=C(Nc1ccc(Cl)c(Cl)c1)N1CCN(C[C@H]2CN(C3CCC3)CCO2)CC1 [Example 115, 4-{[(2S)-4-cyclobutylmorpholin-2-yl]methyl}-N-(3,4-dichlorophenyl)piperazine-1-carboxamide]
O=C(Nc1ccc(Cl)c(Cl)c1)N1CCN(C(=O)[C@H]2CN(C3CCSCC3)CCN2)CC1 [Example 280, N-(3,4-Dichlorophenyl)-4-{[(2R)-4-(tetrahydro-2H-thiopyran-4-yl)piperazin-2-yl]carbonyl}piperazine-1-carboxamide]
CC(C)N1CCO[C@@H](CN2CCN(C(=O)Nc3cccs3)CC2)C1 [Example 188, 4-{[(2S)-4-isopropylmorpholin-2-yl]methyl}-N-2-thienylpiperazine-1-carboxamide]
CC(=O)N1CCC(N2CCC[C@@H](CN3CCN(C(=O)Nc4ccc(Cl)c(Cl)c4)CC3)C2)CC1 [Example 175, 4-{[(3S)-1′-Acetyl-1,4′-bipiperidin-3-yl]methyl}-N-(3,4-dichlorophenyl)piperazine-1-carboxamide]
CN1CCCC(CN2CCN(C(=O)Nc3ccccc3)CC2)C1 (centres unmarked) [Example 1, 4-[(1-methylpiperidin-3-yl)methyl]-N-phenylpiperazine-1-carboxamide]
O=C(Nc1ccc(Cl)c(Cl)c1)N1CCN(CC2CCCN(C3CC3)C2)CC1 (stereo in doubt) [Example 139, 1-{[(3R)-1-Cyclopropylpiperidin-3-yl]methyl}-N-(3,4-dichlorophenyl)piperazine-4-carboxamide]
C[C@@H](Cc1ccc(F)cc1)N1CCO[C@@H](CN2CCN(C(=O)Nc3ccc(F)c(Cl)c3)CC2)C1 [Example 233, N-(3-chloro-4-fluorophenyl)-4-({(2S)-4-[(1S)-2-(4-fluorophenyl)-1-methylethyl]morpholin-2-yl}methyl)piperazine-1-carboxamide]
CN1CCN(C)C(CN2CCN(C(=O)Nc3ccc(Cl)c(Cl)c3)CC2)C1 (centres unmarked) [Example 209, 1-{[1,4-Dimethylpiperazin-3-yl]methyl}-N-(3,4-dichlorophenyl)piperazine-4-carboxamide]
O=C(Nc1ccc(Cl)c(Cl)c1)N1CCN(C[C@@H]2CCCN(Cc3c[nH]nc3-c3cccs3)C2)CC1 [Example 199, N-(3,4-Dichlorophenyl)-4-[((3R)-1-{[3-(2-thienyl)-1H-pyrazol-4-yl]methyl}piperidin-3-yl)methyl]piperazine-1-carboxamide]
CS(=O)(=O)N1CCC(N2CCC[C@@H](CN3CCN(C(=O)Nc4ccc(Cl)c(Cl)c4)CC3)C2)CC1 [Example 176, N-(3,4-Dichlorophenyl)-4-{[(3S)-1′-(methylsulfonyl)-1,4′-bipiperidin-3-yl]methyl}piperazine-1-carboxamide]
O=C(Nc1ccc(Cl)c(Cl)c1)N1CCN(C(=O)[C@H]2CN(C3CCOCC3)CCN2)CC1 [Example 221, N-(3,4-dichlorophenyl)-4-{[(2R)-4-(tetrahydro-2H-pyran-4-yl)piperazin-2-yl]carbonyl}piperazine-1-carboxamide]
O=C(Nc1ccc(Cl)cc1)N1CCN(CC2CCCN(C3CC3)C2)CC1 (stereo in doubt) [Example 185, N-(4-chlorophenyl)-4-{[(3R)-1-(2-cyclopropyl)piperidin-3-yl]methyl}piperazine-1-carboxamide]
